From PMC11513893, “Discovery of Oral Degraders of the ROS1 Fusion Protein with Potent Activity against Secondary Resistance Mutations” (Journal of Medicinal Chemistry, 2024) come the findings set out here.

One may read the IC50 as the concentration that gives 50% inhibition.

The subject of series [1] is Ba/F3 CD74-ROS1 non mutant. Description: Antiproliferation assay (Alamar Blue, 72 h). The class given is cell-based, mouse. The note with it: Mus musculus, BaF3, 72 h, Ba/F3 cells, cell growth inhibition. On the technique in general: Resazurin is reduced to fluorescent resorufin, in cell work by metabolically active cells.
For another series, the system named is Ba/F3 ROS1 D2033N. Briefly: Antiproliferation assay. The class given is cell-based. The settings on record: Mus musculus, BaF3; Ba/F3 cells, cell growth inhibition.
For the next series, the system named is Ba/F3 ROS1 G2032R-F2075V. Description: Antiproliferation assay. The class given is cell-based. The note with it: Mus musculus, BaF3; Ba/F3 cells, cell growth inhibition.
The subject of a further series is Ba/F3 ROS1 L2026M. Briefly: Antiproliferation assay. The class given is cell-based. The settings on record: Mus musculus, BaF3; Ba/F3 cells, cell growth inhibition.
A further series concerns the target FLT3 (Homo sapiens, UniProt P36888). Description: Kinase assay. The class given is biochemical. The note with it: average of duplicate measurements.
Another series addresses C-MET (Homo sapiens, UniProt P08581). Briefly: Kinase assay. The class given is biochemical. The note with it: average of duplicate measurements.
Series [2] in a line: Pharmacokinetics study in Sprague–Dawley rats. The class given is in vivo. The settings on record: rat, 0.5 mg/kg iv.

The structures appear in SMILES notation. Where “and” joins values, the source holds several entries; their conditions need not be identical. Equal entries are not always repeated. Bounds are passed on as bounds.

Sequence of FLT3 (P36888 27-993, species assumed): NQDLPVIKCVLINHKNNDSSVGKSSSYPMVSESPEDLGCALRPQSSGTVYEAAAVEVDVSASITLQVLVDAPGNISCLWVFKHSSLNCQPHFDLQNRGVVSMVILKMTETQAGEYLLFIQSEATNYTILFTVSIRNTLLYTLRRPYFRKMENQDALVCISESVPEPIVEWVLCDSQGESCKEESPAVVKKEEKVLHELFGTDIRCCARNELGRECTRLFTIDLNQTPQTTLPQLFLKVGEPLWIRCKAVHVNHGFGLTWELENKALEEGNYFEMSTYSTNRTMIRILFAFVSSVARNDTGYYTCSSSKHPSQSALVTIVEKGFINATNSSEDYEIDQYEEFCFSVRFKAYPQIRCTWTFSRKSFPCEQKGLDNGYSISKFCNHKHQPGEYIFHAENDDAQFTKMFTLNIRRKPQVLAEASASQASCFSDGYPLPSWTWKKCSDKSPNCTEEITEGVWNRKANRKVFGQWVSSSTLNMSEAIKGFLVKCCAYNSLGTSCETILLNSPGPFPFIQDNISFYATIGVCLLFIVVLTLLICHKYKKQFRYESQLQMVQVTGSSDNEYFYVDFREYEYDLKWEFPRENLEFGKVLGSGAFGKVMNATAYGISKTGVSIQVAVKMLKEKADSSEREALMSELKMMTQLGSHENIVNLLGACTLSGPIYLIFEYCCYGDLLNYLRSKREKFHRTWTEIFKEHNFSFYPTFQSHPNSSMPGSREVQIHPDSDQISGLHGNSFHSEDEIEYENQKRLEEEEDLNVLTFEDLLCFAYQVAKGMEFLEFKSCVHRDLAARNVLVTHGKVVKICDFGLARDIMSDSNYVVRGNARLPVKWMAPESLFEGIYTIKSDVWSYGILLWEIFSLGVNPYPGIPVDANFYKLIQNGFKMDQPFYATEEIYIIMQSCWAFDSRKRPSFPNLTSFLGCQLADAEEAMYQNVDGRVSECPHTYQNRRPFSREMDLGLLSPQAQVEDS
Sequence of C-MET (P08581 25-1390): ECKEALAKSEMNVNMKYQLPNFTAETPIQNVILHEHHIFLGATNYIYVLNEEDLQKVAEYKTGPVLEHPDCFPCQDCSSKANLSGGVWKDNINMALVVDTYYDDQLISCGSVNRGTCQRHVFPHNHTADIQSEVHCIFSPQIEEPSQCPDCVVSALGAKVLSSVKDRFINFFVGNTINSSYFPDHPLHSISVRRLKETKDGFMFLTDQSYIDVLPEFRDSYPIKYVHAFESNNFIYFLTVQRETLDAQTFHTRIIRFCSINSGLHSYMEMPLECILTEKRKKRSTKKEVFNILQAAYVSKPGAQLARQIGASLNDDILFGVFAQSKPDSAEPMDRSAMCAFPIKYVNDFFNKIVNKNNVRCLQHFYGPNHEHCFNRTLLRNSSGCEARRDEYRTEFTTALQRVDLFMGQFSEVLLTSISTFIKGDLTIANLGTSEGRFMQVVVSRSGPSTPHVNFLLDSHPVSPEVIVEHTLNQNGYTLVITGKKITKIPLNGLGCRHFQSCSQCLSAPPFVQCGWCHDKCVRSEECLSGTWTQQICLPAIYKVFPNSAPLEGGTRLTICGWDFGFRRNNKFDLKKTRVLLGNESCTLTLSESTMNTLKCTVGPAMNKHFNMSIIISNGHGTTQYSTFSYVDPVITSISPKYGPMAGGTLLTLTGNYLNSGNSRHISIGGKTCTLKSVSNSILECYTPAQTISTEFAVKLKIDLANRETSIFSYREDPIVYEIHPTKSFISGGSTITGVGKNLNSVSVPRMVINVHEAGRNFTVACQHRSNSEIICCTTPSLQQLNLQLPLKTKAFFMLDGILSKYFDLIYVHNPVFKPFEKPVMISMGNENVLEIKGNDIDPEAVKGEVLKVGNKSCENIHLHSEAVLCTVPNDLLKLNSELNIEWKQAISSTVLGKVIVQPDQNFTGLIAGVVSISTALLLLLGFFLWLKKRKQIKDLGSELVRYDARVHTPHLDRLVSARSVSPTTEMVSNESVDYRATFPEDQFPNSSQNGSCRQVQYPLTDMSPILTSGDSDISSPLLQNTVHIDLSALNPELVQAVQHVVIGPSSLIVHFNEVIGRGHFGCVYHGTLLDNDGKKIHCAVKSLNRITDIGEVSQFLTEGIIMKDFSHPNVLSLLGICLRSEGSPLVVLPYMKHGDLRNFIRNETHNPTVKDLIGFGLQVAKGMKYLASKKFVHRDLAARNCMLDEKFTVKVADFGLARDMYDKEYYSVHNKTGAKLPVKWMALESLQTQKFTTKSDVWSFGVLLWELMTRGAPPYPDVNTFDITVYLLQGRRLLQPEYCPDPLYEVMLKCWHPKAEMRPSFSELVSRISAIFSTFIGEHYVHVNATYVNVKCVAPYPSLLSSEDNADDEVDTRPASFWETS

As for `COc1cc(N2CCC(N3CCN(CC4CCN(c5ccc6c(c5)CN(C5CCC(=O)NC5=O)C6=O)CC4)CC3)CC2)ccc1Nc1ncc(Cl)c(Nc2ccccc2P(C)(C)=O)n1` (stereo not shown) [9o, 3-(5-(4-((4-(1-(4-((5-Chloro-4-((2-(dimethylphosphoryl)phenyl)amino)pyrimidin-2-yl)amino)-3-methoxyphenyl)piperidin-4-yl)piperazin-1-yl)methyl)piperidin-1-yl)-1-oxoisoindolin-2-yl)piperidine-2,6-dione], the IC50 in series [1] was 1.1 ± 0.3 nM; with Ba/F3 ROS1 D2033N it was 9.6 nM; in the series on Ba/F3 ROS1 G2032R-F2075V, 5.6 nM; in the series with Ba/F3 ROS1 L2026M, 2.5 nM; against FLT3 it was < 10 nM and 3.5 nM; against C-MET, 95 nM. For the same compound, in series [2], the “AUC (iv)” value amounted to 1736 ng·h/mL.
